Assay: xn = mol fraction of the nth substance listed
Conditions: 101 kPa, Liquid

CCn1cc[n+](C)c1.O=C([O-])C(F)(F)F [1-ethyl-3-methylimidazolium trifluoroacetate] + O
Conditions	mass density [kg/m3]	viscosity [mPa·s]
278.15 K, x2 = 0	1306.89	78
278.15 K, x2 = 0.2042	–	56
278.15 K, x2 = 0.205	1299.84	–
278.15 K, x2 = 0.3952	–	40
278.15 K, x2 = 0.3983	1291.27	–
278.15 K, x2 = 0.5808	1278	25
278.15 K, x2 = 0.7565	–	16
278.15 K, x2 = 0.7573	1248.38	–
278.15 K, x2 = 0.842	1216.87	–
278.15 K, x2 = 0.9256	1151.47	6
278.15 K, x2 = 0.9667	1086.88	–
278.15 K, x2 = 0.9912	1026.68	–
288.15 K, x2 = 0	1298.81	48
288.15 K, x2 = 0.2042	–	35
288.15 K, x2 = 0.205	1291.82	–
288.15 K, x2 = 0.3952	–	26
288.15 K, x2 = 0.3983	1283.25	–
288.15 K, x2 = 0.5808	1269.93	17
288.15 K, x2 = 0.7565	–	11
288.15 K, x2 = 0.7573	1240.21	–
288.15 K, x2 = 0.842	1208.86	–
288.15 K, x2 = 0.9256	1144.67	5
288.15 K, x2 = 0.9667	1082.51	–
288.15 K, x2 = 0.9912	1024.93	–
298.15 K, x2 = 0	1290.8	32
298.15 K, x2 = 0.2042	–	24
298.15 K, x2 = 0.205	1283.85	–
298.15 K, x2 = 0.3952	–	18
298.15 K, x2 = 0.3983	1275.26	–
298.15 K, x2 = 0.5808	1261.85	12
298.15 K, x2 = 0.7565	–	8
298.15 K, x2 = 0.7573	1231.95	–
298.15 K, x2 = 0.842	1200.76	–
298.15 K, x2 = 0.9256	1137.65	4
298.15 K, x2 = 0.9667	1077.55	–
298.15 K, x2 = 0.9912	1022.15	–
308.15 K, x2 = 0	1282.85	23
308.15 K, x2 = 0.2042	–	17
308.15 K, x2 = 0.205	1275.92	–
308.15 K, x2 = 0.3952	–	14
308.15 K, x2 = 0.3983	1267.29	–
308.15 K, x2 = 0.5808	1253.77	9
308.15 K, x2 = 0.7565	–	6
308.15 K, x2 = 0.7573	1223.66	–
308.15 K, x2 = 0.842	1192.57	–
308.15 K, x2 = 0.9256	1130.4	3
308.15 K, x2 = 0.9667	1072.06	–
308.15 K, x2 = 0.9912	1018.5	–
318.15 K, x2 = 0	1274.95	17
318.15 K, x2 = 0.2042	–	13
318.15 K, x2 = 0.205	1268.04	–
318.15 K, x2 = 0.3952	–	10
318.15 K, x2 = 0.3983	1259.34	–
318.15 K, x2 = 0.5808	1245.67	8
318.15 K, x2 = 0.7565	–	5
318.15 K, x2 = 0.7573	1215.3	–
318.15 K, x2 = 0.842	1184.27	–
318.15 K, x2 = 0.9256	1122.93	3
318.15 K, x2 = 0.9667	1066.08	–
318.15 K, x2 = 0.9912	1014.11	–
328.15 K, x2 = 0	1267.12	13
328.15 K, x2 = 0.2042	–	10
328.15 K, x2 = 0.205	1260.21	–
328.15 K, x2 = 0.3952	–	8
328.15 K, x2 = 0.3983	1251.41	–
328.15 K, x2 = 0.5808	1237.55	6
328.15 K, x2 = 0.7565	–	5
328.15 K, x2 = 0.7573	1206.84	–
328.15 K, x2 = 0.842	1175.86	–
328.15 K, x2 = 0.9256	1115.2	3
328.15 K, x2 = 0.9667	1059.66	–
328.15 K, x2 = 0.9912	1009.07	–
338.15 K, x2 = 0	1259.35	10
338.15 K, x2 = 0.2042	–	8
338.15 K, x2 = 0.205	1252.42	–
338.15 K, x2 = 0.3952	–	7
338.15 K, x2 = 0.3983	1243.49	–
338.15 K, x2 = 0.5808	1229.41	6
338.15 K, x2 = 0.7565	–	4
338.15 K, x2 = 0.7573	1198.32	–
338.15 K, x2 = 0.842	1167.33	–
338.15 K, x2 = 0.9256	1107.28	2
338.15 K, x2 = 0.9667	1052.83	–
338.15 K, x2 = 0.9912	1002.87	–
348.15 K, x2 = 0	1251.63	9
348.15 K, x2 = 0.2042	–	7
348.15 K, x2 = 0.205	1244.66	–
348.15 K, x2 = 0.3952	–	6
348.15 K, x2 = 0.3983	1235.59	–
348.15 K, x2 = 0.5808	1221.23	5
348.15 K, x2 = 0.7565	–	4
348.15 K, x2 = 0.7573	1189.98	–
348.15 K, x2 = 0.842	1158.69	–
348.15 K, x2 = 0.9256	1099.05	2
348.15 K, x2 = 0.9667	1045.56	–
348.15 K, x2 = 0.9912	997.23	–

— the NIST ThermoML archive (doi:10.1021/je0602824)
